{"source": "patent US4990450A", "about": "“Method of producing endo-α-N-acetylgalactosaminidase from microorganisms” (Seitetsu Kagaku Co., Ltd., priority 1987, dated 1991)", "key": {"[1]": {"tested_on": "endo-α-GalNAcase", "test": "Effects of inhibitors (additives) on enzyme activity", "assay_type": "biochemical, Alcaligenes sp. F-1906", "protocol": "(§1) The activity of this enzyme can be measured with asialofetuin as a substrate. The enzyme reaction is carried out in citrate buffer, pH 4.5, at 37° C., and then stopped by adding a borate buffer, pH 9.1, to this reaction mixture. The Gal β1→3GalNAc produced is measured by the method of Reissig. One unit of enzyme activity is defined as the amount of enzyme that releases 1 μmol of Gal β1,→3GalNAc in one minute.\nThe enzyme was tested for the effects of various kinds of substances."}, "[2]": {"tested_on": "endo-α-GalNAcase", "test": "Substrate specificity of the enzyme", "assay_type": "biochemical, Alcaligenes sp. F-1906"}, "[3]": {"tested_on": "asialofetuin", "test": "Enzyme activity with asialofetuin as substrate (optimum pH, optimum temperature, activity of purified enzyme)", "assay_type": "biochemical", "protocol": "as §1\n(§2) The optimum pH of the enzyme reaction is 4.5-5.0 The enzyme is stable in the pH range of 4.2-6.5. thin this pH range, the activity remains about 90% or more after the enzyme is left at 1 hour at 30° C.\n(§3) The optimum temperature for the enzyme reaction is 40-45° C. The temperature at which the enzyme is stable for 10 minutes when kept in a phosphate buffer, pH 6.0, is 30° C. or less. At 40° C., about 70% of the activity remains after such treatment.\nCommercially available mucin from pig gastric mucosa was mixed with 1 N sulfuric acid and left for 1 hour at 80° C. for hydrolysis, which removed the sialic acid moiety of the mucin. The hydrolysate was added to the medium at the concentration of 1%. Five hundred milliliters of the medium was put into each of 40 flasks with a capacity of 2 liters, which were sterilized and were inoculated with 5 ml of pre-cultured Alcaligenes sp. F-1906. The flasks were cultured at 28° C. for 3 days. After the culture, the bacterial cells were removed by centrifugation, and the supernatant of the culture was obtained. Ammonium sulfate was added to this supernatant at 0-5° C. and the fractions that precipitated at the saturation of 40-80% ammonium sulfate were collected. This precipitate was dissolved in 0.01 M phosphate buffer, pH 6.0, and then dialyzed overnight against the same buffer. The dialysate was put on a DEAE-Sephadex® A-50 column (5.0×32.5 cm) equilibrated with 0.01 M phosphate buffer. After the column was washed with the same buffer containing 0.2 M NaCl, the enzyme was eluted with the same buffer containing 0.4 M NaCl. […]"}, "[4]": {"test": "pH and temperature stability of the enzyme", "assay_type": "physicochemical", "protocol": "as §2, §3"}, "[5]": {"conditions": "additive concentration 2.5 mM, no additive = 100"}, "[6]": {"conditions": "additive concentration 2.4 mM, no additive = 100"}, "[7]": {"conditions": "additive concentration 2.0 mM, no additive = 100"}}, "note": "Where two headings read alike, the source gives them in different places."}
{"compound": "[Ca+2]", "note": "[Ca]", "values": [{"measurement": "Relative activity", "setting": "[1]; [5]", "result": 109, "unit": "%"}]}
{"compound": "[Cu+2]", "note": "[Cu]", "values": [{"measurement": "Inhibition of the enzyme", "setting": "[1]; Table 2", "result": "26-35%"}, {"measurement": "Relative activity", "setting": "[1]; [5]", "result": 74, "unit": "%"}]}
{"compound": "N[C@@H](CS)C(=O)O", "note": "[Cysteine]", "values": [{"measurement": "Inhibition of the enzyme", "setting": "[1]; Table 2", "result": "approximately 30%"}, {"measurement": "Relative activity", "setting": "[1]; [6]", "result": 68, "unit": "%"}]}
{"compound": "O=C(O)CN(CCN(CC(=O)O)CC(=O)O)CC(=O)O", "note": "[Ethylenediamine-tetraacetic acid]", "values": [{"measurement": "Relative activity", "setting": "[1]; [5]", "result": 97, "unit": "%"}]}
{"compound": "N[C@H]1C(O)O[C@H](CO)[C@H](O)[C@@H]1O", "note": "(stereo partly drawn) [Galactosamine]", "values": [{"measurement": "Relative activity", "setting": "[1]; [7]", "result": 106, "unit": "%"}]}
{"compound": "OC[C@H]1OC(O)[C@H](O)[C@@H](O)[C@H]1O", "note": "(stereo partly drawn) [Galactose]", "values": [{"measurement": "Relative activity", "setting": "[1]; [7]", "result": 107, "unit": "%"}]}
{"compound": "N[C@H]1C(O)O[C@H](CO)[C@@H](O)[C@@H]1O", "note": "(stereo partly drawn) [Glucosamine]", "values": [{"measurement": "Relative activity", "setting": "[1]; [7]", "result": 111, "unit": "%"}]}
{"compound": "OC[C@H]1OC(O)[C@H](O)[C@@H](O)[C@@H]1O", "note": "(stereo partly drawn) [Glucose]", "values": [{"measurement": "Relative activity", "setting": "[1]; [7]", "result": 109, "unit": "%"}]}
{"compound": "O=C(O)CI", "note": "[Iodoacetic acid]", "values": [{"measurement": "Effect on enzyme activity (in words)", "setting": "[1]", "result": "almost unaffected"}, {"measurement": "Relative activity", "setting": "[1]; endo-alpha-galnacase, pH 4.5, 2400 µM", "result": 109, "unit": "%"}]}
{"compound": "OCCS", "note": "[Mercaptoethanol]", "values": [{"measurement": "Effect on enzyme activity (in words)", "setting": "[1]; Table 2", "result": "almost unaffected"}, {"measurement": "Relative activity", "setting": "[1]; [6]", "result": 97, "unit": "%"}]}
{"compound": "[Mn+2]", "note": "[Mn]", "values": [{"measurement": "Inhibition of the enzyme", "setting": "[1]; Table 2", "result": "26-35%"}, {"measurement": "Relative activity", "setting": "[1]; [5]", "result": 65, "unit": "%"}]}
{"compound": "CCN1C(=O)C=CC1=O", "note": "[N-Ethylmaleimide]", "values": [{"measurement": "Effect on enzyme activity (in words)", "setting": "[1]; Table 2", "result": "almost unaffected"}, {"measurement": "Relative activity", "setting": "[1]; [6]", "result": 105, "unit": "%"}]}
{"compound": "CC(=O)N[C@H]1[C@H]([C@H](O)[C@H](O)CO)OC(O)(C(=O)O)C[C@@H]1O", "note": "(stereo partly drawn) [Sialic acid]", "values": [{"measurement": "Relative activity", "setting": "[1]; additive concentration 1.0 mM, no additive = 100", "result": 106, "unit": "%"}]}
{"compound": "[Zn+2]", "note": "[Zn]", "values": [{"measurement": "Relative activity", "setting": "[1]; [5]", "result": 88, "unit": "%"}]}
{"compound": "O=C(O)c1cc[c]([Hg][Cl])cc1", "note": "[p-Chloromercuribenzoic acid]", "values": [{"measurement": "Effect on enzyme activity (in words)", "setting": "[1]; Table 2", "result": "almost unaffected"}, {"measurement": "Relative activity", "setting": "[1]; [6]", "result": 99, "unit": "%"}]}
{"compound": "asialofetuin: glycoprotein with O-glycosidic Gal β1→3GalNAc α→Ser (or Thr) sugar chains, used as substrate", "values": [{"measurement": "Use as substrate of the enzyme", "setting": "[2]", "result": "can be used as substrates"}]}
{"compound": "endo-α-N-acetylgalactosaminidase [endo-α-GalNAcase]", "values": [{"measurement": "Optimum pH of the enzyme reaction", "setting": "[3]", "result": "4.5-5.0"}, {"measurement": "Optimum temperature for the enzyme reaction", "setting": "[3]", "result": "40-45 °C"}, {"measurement": "relative activity of purified enzyme", "setting": "[3]; purified form, Example 1", "result": 2.2, "unit": "units/mg"}, {"measurement": "Activity remaining", "setting": "[4]; 40° C., 10 minutes in phosphate buffer, pH 6.0", "result": "about 70%"}, {"measurement": "Temperature at which the enzyme is stable", "setting": "[4]; 10 minutes in phosphate buffer, pH 6.0", "result": "≤ 30", "unit": "°C"}, {"measurement": "pH range in which the enzyme is stable", "setting": "[4]; 1 hour at 30° C.", "result": "4.2-6.5"}, {"measurement": "Activity remaining", "setting": "[4]; within pH 4.2-6.5, 1 hour at 30° C.", "result": "≥ 90", "unit": "%"}]}
